From patent US6544967B2, “Method for inhibiting bone resorption” (Merck & Co., Inc., priority 1997, dated 2003)

Test system: canine esophagus tissue
Experiment: Esophageal irritation potential, dog model (esophageal infusion in simulated gastric juice, histopathology)
Assay type: in vivo
Details: for Histopathology of esophagus (photomicrographs): 50 mL; for Esophageal irritation potential: low dosages on consecutive days (Group 7 risedronate, Group 8 tiludronate)
Protocol: The esophageal irritation potential of the bisphosphonates is evaluated using a dog model.
The following solutions are prepared:
(1) simulated gastric juice (pH about 2), i.e. the control solution.
(5) simulated gastric juice (pH about 2) containing about 0.20 mg/mL of risedronate sodium on a risedronic acid active basis.
(6) simulated gastric juice (pH about 2) containing about 4.0 mg/mL of tiludronate disodium on a tiludronic acid active basis.
The simulated gastric juice is prepared by dissolving about 960 mg of pepsin (L-585,228000B003, Fisher Chemical) in about 147 mL of 0.90 (wt %) NaCl (aqueous), adding about 3 mL of 1.0 M HCl (aqueous), and adjusting the volume to about 300 mL with deionized water. The pH of the resulting solution is measured and if necessary is adjusted to about 2 using 1.0 M HCl (aqueous) or 1.0 M NaOH (aqueous).
The animals used in the experiments are anesthetized and administered about 50 mL of the appropriate solution over about 30 minutes by infusion into the esophagus using an infusion pump and a rubber catheter. The following treatment experiments are run:
Group 1: This control group contains four animals. Each animal is administered a dosage of about 50 mL of simulated gastric juice [solution (1)] on each of five consecutive days. The animals are sacrificed immediately after the last dose is administered.
Group 2: This group contains four animals. […] The animals are sacrificed immediately after the last dose is administered.
Group 3: This group contains five animals. […] The animals are sacrificed about 24 hours after the dose is administered.
Group 4: This group contains five animals. […] The animals are sacrificed about 7 days after the dose is administered.
Group 5: This group contains six animals. […] The animals are administered a total of four dosages. The animals are sacrificed about 7 days after the last dose is administered.
Group 6: This group contains six animals. […] The animals are administered a total of eight dosages. The animals are sacrificed about four days after the last dose is administered.
Group 7: This group contains eight animals. Each animal is administered a dosage of about 50 mL of simulated gastric juice containing about 0.20 mg/mL of risedronate [solution (5)] on each of five consecutive days. The animals are sacrificed immediately after the last dose is administered.
Group 8: This group contains four animals. Each animal is administered a dosage of about 50 mL of simulated gastric juice containing about 4.0 mg/mL of tiludronate on each of five consecutive days. The animals are sacrificed immediately after the last dose is administered.
The esophagus from each sacrificed animal is removed and prepared for histopathology using standard techniques by embedding the tissue in paraffin, staining with hematoxylin and eosin. The sections are examined microscopically.

## NCCCC(O)(P(=O)(O)O)P(=O)(O)O [Alendronate, 4-amino-1-hydroxybutylidene-1,1-bisphosphonic acid monosodium trihydrate]
Group 2 (n = 4): 0.20 mg/mL, 50 mL in simulated gastric juice pH about 2, 1X daily for 5 days, sacrifice immediately after last dosing, monosodium trihydrate
  Histo-pathology: deep ulceration of the epithelial surface and marked submucosal inflammation and vacuolation
Group 3 (n = 5): 0.80 mg/mL, 50 mL in simulated gastric juice, 1X, sacrifice 24 hours after dosing, monosodium trihydrate
  Histo-pathology: intact epithelial surface with very slight submucosal inflammation and vacuolation
Group 4 (n = 5): 0.80 mg/mL, 50 mL in simulated gastric juice, 1X, sacrifice 7 days after dosing, monosodium trihydrate
  Histo-pathology: intact epithelium with either minimal inflammation (two of the five animals) or no inflammation (three of the five animals) and no vacuolation
Group 5 (n = 6): 0.80 mg/mL, 50 mL in simulated gastric juice, 1X weekly for a total of 4 doses, sacrifice 7 days after last dosing, monosodium trihydrate
  Histo-pathology: normal with an intact epithelium and absence of inflammatory cells in the submucosa
Group 6: 0.40 mg/mL, twice per week for four weeks (eight dosages), sacrifice about four days after last dose
  Histopathology of esophagus (photomicrographs): deep ulceration of the epithelial surface and marked submucosal inflammation and vacuolation

## O=P(O)(O)C(O)(Cc1cccnc1)P(=O)(O)O [Risedronate, 1-hydroxy-2-(3-pyridinyl)-ethylidene-1,1-bisphosphonic acid]
Group 7 (n = 8): 0.20 mg/mL, 50 mL in simulated gastric juice, 1X daily for 5 days, sacrifice immediately after last dosing
  Histo-pathology: deep ulceration of the epithelial surface and marked submucosal inflammation and vacuolation
  Esophageal irritation potential: high

## O=P(O)(O)C(Sc1ccc(Cl)cc1)P(=O)(O)O [Tiludronate, (4-chlorophenyl)thiomethane-1,1-disphosphonic acid]
Group 8: 4.0 mg/mL, five consecutive days, sacrifice immediately after last dose
  Histopathology of esophagus (photomicrographs): slight ulceration of the epithelial surface and slight submucosal inflammation and vacuolation
  Esophageal irritation potential: high
